Results published in paper doi:10.1101/2023.11.24.568596v1 (biorxiv, 2023).

Experiments:
Settings in all cases: binder
Erk2 = Erk2 (Homo sapiens, UniProt P28482)
CaMKK2 = CaMKK2 (Homo sapiens, UniProt Q96RR4)
DRAK1 = target: T1, DRAK1 (Homo sapiens, UniProt Q9UEE5)
T1 sequence (Q9UEE5 1-414): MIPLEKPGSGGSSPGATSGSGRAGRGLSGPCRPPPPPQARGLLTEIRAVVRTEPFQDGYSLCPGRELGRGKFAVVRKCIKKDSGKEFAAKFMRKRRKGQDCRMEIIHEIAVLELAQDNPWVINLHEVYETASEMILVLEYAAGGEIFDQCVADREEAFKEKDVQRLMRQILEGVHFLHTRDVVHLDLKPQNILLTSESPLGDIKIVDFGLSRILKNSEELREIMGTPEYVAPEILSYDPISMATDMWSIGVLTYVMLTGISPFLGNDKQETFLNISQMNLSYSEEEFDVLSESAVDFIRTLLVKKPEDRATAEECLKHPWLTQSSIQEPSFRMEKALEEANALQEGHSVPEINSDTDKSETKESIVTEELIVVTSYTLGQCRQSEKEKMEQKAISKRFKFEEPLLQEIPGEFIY

JNK1 = JNK1 (Homo sapiens, UniProt P45983)
AKT3 = AKT3 (Homo sapiens, UniProt Q9Y243)
PAK4 = PAK4 (Homo sapiens, UniProt O96013)
NEK1 = target: T2, NEK1 (Homo sapiens, UniProt Q96PY6)
T2 sequence (Q96PY6 1-1258): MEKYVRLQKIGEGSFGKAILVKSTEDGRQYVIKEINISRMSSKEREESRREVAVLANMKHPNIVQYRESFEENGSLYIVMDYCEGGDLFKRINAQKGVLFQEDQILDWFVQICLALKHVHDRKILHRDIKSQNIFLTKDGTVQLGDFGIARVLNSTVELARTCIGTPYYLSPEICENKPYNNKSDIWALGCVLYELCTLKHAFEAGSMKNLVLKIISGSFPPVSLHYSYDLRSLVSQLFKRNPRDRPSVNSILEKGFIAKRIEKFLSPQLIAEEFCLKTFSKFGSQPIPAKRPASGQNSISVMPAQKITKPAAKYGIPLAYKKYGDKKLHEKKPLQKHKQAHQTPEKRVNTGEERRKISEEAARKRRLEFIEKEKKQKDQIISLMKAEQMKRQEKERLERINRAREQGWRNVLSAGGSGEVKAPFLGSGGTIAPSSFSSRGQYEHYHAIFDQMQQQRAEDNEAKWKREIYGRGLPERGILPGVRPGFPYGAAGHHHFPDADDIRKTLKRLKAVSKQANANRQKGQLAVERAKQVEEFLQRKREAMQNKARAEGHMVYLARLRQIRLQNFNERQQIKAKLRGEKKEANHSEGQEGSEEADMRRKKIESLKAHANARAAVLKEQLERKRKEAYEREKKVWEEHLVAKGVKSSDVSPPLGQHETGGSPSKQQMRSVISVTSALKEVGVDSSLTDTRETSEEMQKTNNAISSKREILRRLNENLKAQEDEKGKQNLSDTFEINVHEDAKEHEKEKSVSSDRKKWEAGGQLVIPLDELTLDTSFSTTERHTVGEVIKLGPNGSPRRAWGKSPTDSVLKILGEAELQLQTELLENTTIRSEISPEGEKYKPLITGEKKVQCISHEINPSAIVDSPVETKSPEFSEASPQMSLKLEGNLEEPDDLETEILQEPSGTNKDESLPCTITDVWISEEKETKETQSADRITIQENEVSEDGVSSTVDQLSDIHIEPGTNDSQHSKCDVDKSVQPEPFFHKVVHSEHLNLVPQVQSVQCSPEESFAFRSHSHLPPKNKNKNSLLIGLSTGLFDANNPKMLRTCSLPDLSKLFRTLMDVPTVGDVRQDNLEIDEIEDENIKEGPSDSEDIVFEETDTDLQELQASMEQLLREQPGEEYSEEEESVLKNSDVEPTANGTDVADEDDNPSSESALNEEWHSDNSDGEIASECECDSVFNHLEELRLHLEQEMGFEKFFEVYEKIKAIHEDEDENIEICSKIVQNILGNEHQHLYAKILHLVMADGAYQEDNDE

MST4 = MST4 (Homo sapiens, UniProt Q9P289)
CK2a1 = CK2a1 (Homo sapiens, UniProt P68400)
Sequence of CK2a1 (P68400 whole entry): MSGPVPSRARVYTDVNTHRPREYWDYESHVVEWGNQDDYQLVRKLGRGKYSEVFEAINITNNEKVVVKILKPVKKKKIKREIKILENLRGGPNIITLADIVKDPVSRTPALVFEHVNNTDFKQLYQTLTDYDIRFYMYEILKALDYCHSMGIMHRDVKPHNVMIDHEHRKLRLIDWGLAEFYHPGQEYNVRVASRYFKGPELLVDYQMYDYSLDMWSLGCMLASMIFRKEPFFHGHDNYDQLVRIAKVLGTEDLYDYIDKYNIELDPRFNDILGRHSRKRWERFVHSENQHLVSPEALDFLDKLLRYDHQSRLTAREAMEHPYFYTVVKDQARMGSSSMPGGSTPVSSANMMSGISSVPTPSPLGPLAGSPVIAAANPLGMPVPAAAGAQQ

Sequence of CaMKK2 (Q96RR4 whole entry): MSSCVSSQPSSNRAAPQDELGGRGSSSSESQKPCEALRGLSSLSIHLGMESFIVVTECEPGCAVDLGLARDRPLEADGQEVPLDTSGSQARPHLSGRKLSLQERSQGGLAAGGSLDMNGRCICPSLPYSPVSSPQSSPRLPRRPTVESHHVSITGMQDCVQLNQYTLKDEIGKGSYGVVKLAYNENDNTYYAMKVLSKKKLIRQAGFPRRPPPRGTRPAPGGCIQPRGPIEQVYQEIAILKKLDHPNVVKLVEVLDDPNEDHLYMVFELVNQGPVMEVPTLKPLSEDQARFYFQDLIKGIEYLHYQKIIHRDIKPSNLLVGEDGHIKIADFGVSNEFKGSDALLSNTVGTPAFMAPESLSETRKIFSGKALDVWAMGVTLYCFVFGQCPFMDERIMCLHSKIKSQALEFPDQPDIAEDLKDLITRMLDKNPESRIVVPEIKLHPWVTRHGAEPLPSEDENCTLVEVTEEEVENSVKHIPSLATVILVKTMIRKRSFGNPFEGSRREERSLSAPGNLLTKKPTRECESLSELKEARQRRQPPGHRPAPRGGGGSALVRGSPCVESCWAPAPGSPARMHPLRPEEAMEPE
Sequence of AKT3 (Q9Y243 whole entry): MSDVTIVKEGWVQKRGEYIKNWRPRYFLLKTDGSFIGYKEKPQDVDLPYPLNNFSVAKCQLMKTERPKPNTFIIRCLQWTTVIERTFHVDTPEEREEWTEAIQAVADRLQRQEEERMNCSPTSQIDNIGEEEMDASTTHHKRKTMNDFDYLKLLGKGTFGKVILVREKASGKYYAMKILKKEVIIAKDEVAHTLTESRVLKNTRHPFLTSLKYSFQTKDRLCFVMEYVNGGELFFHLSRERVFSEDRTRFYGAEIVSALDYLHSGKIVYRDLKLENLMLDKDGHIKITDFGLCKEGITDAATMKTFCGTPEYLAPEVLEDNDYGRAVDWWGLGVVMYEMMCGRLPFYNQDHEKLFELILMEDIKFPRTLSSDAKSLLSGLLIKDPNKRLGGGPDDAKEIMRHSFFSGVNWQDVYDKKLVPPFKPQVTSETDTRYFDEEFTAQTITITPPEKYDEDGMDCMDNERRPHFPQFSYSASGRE
Sequence of JNK1 (P45983 whole entry): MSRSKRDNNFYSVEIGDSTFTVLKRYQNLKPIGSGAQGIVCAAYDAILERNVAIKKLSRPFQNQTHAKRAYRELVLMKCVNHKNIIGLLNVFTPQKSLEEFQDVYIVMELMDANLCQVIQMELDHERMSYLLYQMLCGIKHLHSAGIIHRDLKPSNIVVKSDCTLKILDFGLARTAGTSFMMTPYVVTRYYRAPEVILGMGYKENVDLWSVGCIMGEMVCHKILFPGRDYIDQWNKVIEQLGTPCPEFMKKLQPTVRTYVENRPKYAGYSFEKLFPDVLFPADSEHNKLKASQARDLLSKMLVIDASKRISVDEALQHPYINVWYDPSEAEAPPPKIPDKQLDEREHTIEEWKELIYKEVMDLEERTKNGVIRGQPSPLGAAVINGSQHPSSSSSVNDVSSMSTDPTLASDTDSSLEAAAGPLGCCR
Sequence of MST4 (Q9P289 whole entry): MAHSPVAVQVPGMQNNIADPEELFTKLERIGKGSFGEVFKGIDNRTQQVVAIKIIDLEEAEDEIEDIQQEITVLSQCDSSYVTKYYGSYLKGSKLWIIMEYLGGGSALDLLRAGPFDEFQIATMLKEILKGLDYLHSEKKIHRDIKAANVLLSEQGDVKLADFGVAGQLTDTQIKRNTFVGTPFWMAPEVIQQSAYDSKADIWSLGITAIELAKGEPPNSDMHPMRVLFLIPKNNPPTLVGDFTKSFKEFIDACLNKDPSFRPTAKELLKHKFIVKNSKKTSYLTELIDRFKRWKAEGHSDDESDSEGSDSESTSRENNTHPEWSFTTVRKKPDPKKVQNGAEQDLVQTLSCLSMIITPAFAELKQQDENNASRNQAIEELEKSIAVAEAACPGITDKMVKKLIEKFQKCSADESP
Sequence of Erk2 (P28482 whole entry): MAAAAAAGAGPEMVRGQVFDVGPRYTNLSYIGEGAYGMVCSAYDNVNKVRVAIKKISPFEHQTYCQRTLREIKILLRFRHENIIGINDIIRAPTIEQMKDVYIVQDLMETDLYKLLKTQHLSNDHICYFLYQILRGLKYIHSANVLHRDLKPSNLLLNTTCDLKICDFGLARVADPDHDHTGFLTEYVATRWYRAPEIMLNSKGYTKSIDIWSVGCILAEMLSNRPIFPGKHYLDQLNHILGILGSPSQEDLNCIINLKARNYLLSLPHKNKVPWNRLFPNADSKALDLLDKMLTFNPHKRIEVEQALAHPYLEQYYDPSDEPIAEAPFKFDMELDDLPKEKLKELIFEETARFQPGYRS
Sequence of PAK4 (O96013 whole entry): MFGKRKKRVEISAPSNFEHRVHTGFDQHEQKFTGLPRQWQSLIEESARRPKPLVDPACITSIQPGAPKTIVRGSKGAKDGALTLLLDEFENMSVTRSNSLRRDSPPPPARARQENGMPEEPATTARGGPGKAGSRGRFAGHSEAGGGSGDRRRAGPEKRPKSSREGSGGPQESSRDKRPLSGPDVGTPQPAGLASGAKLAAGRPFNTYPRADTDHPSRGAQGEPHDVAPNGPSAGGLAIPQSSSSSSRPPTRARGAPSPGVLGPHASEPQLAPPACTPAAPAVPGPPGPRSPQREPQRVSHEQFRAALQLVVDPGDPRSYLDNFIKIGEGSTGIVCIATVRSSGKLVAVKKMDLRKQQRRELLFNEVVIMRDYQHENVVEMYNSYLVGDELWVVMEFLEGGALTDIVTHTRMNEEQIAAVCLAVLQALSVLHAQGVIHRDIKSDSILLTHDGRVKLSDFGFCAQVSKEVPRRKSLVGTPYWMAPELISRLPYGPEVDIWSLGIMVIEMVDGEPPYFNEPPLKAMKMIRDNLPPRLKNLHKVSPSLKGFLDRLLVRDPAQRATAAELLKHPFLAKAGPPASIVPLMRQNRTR

In the case of Cc1cccc(-c2ccc(-c3cc4cnc(NC(CO)CO)nc4n(CCCCN)c3=O)c(Cl)c2)n1 [compound 24, 8-(4-Aminobutyl)-6-(2-chloro-4-(6-methylpyridin-2-yl)phenyl)-2-((1,3-dihydroxypropan-2-yl)amino)pyrido[2,3-d]pyrimidin-7(8H)-one], the “ΔTm MR24 (24)” value (Erk2) is reported as -0.9 °C, the “ΔTm MR24 (24)” value (CaMKK2) is reported as 0.2 °C and the “ΔTm MR24 (24)” value (DRAK1) is reported as 0.0 °C. The “ΔTm MR24 (24)” value (JNK1) was 0.7 °C, the “ΔTm MR24 (24)” value (AKT3) was 1.0 °C and the “ΔTm MR24 (24)” value (PAK4) was 2.2 °C. For the same compound, the “ΔTm MR24 (24)” value (NEK1) was 0.0 °C, the “ΔTm MR24 (24)” value (MST4) was 9.1 °C and the “ΔTm MR24 (24)” value (CK2a1) was 0.0 °C.
For Cc1cccc(-c2ccc(-c3cc4cnc(NCCCc5ccc(N)cc5)nc4n(CCCCN)c3=O)c(Cl)c2)n1 [compound 25, 8-(4-Aminobutyl)-2-((3-(4-aminophenyl)propyl)amino)-6-(2-chloro-4-(6-methylpyridin-2-yl)phenyl)pyrido[2,3-d]pyrimidin-7(8H)-one], the “ΔTm 25” value (Erk2) was 3.1 °C, the “ΔTm 25” value (CaMKK2) was 3.3 °C and the “ΔTm 25” value (DRAK1) was 0.9 °C. The “ΔTm 25” value (JNK1) was 4.5 °C, the “ΔTm 25” value (AKT3) was 2.0 °C and the “ΔTm 25” value (PAK4) was 5.5 °C. The “ΔTm 25” value (NEK1) was -1.2 °C, the “ΔTm 25” value (MST4) was 9.6 °C and the “ΔTm 25” value (CK2a1) was -0.4 °C.
CNc1ncc2cc(-c3ccc(-c4cccc(C)n4)cc3Cl)c(=O)n(CCC3CCNCC3)c2n1 [compound 22, 6-(2-Chloro-4-(6-methylpyridin-2-yl)phenyl)-2-(methylamino)-8-(2-(piperidin-4-yl)ethyl)pyrido[2,3-d]pyrimidin-7(8H)-one] was tested, and the “ΔTm 22” value (Erk2) was 2.8 °C, the “ΔTm 22” value (CaMKK2) was 2.3 °C and the “ΔTm 22” value (DRAK1) was -1.3 °C. The “ΔTm 22” value (JNK1) was 4.0 °C, the “ΔTm 22” value (AKT3) was 4.6 °C and the “ΔTm 22” value (PAK4) was 4.7 °C. For the same compound, the “ΔTm 22” value (NEK1) was -2.0 °C, the “ΔTm 22” value (MST4) was 7.8 °C and the “ΔTm 22” value (CK2a1) was -0.6 °C.
With CNc1ncc2cc(-c3ccc(-c4cccc(C)n4)cc3Cl)c(=O)n(CCCCN)c2n1 [compound 20, MRLW5] the “ΔTm MRLW5 (20)” value (Erk2) was 1.3 °C, the “ΔTm MRLW5 (20)” value (CaMKK2) was 1.4 °C and the “ΔTm MRLW5 (20)” value (DRAK1) was -0.5 °C. The “ΔTm MRLW5 (20)” value (JNK1) was 4.2 °C, the “ΔTm MRLW5 (20)” value (AKT3) was 2.3 °C and the “ΔTm MRLW5 (20)” value (PAK4) was 4.8 °C. For the same compound, the “ΔTm MRLW5 (20)” value (NEK1) was -1.9 °C, the “ΔTm MRLW5 (20)” value (MST4) was 11.4 °C and the “ΔTm MRLW5 (20)” value (CK2a1) was -0.2 °C.
For Cc1cccc(-c2ccc(-c3cc4cnc(NCCCN5CCOCC5)nc4n(CCCCN)c3=O)c(Cl)c2)n1 [compound 26, MR26], the “ΔTm MR26 (26)” value (Erk2) was 0.2 °C, the “ΔTm MR26 (26)” value (CaMKK2) was 1.5 °C and the “ΔTm MR26 (26)” value (DRAK1) was 0.2 °C. The “ΔTm MR26 (26)” value (JNK1) was 0.8 °C, the “ΔTm MR26 (26)” value (AKT3) was 0.8 °C and the “ΔTm MR26 (26)” value (PAK4) was 2.4 °C. For the same compound, the “ΔTm MR26 (26)” value (NEK1) was 0.1 °C, the “ΔTm MR26 (26)” value (MST4) was 11.2 °C and the “ΔTm MR26 (26)” value (CK2a1) was 0.6 °C.
For CNc1ncc2cc(-c3ccc(-c4cccc(C)n4)cc3Cl)c(=O)n(C[C@H]3CC[C@H](N)CC3)c2n1 [compound 23, 23], the “ΔTm 23” value (Erk2) was 2.7 °C, the “ΔTm 23” value (CaMKK2) was 4.9 °C and the “ΔTm 23” value (DRAK1) was -1.0 °C. For the same compound, the “ΔTm 23” value (JNK1) was 4.5 °C, the “ΔTm 23” value (AKT3) was 3.7 °C and the “ΔTm 23” value (PAK4) was 4.5 °C. For the same compound, the “ΔTm 23” value (NEK1) was -2.7 °C, the “ΔTm 23” value (MST4) was 8.2 °C and the “ΔTm 23” value (CK2a1) was -0.4 °C.
